In data set [1] the test system is three-dimensional human epidermal equivalents (EPI-200). As to the kind of experiment: In Vitro Skin Irritation Test, MTT tissue viability, retinoids (Example 2). It is filed as cell-based. The settings on record: positive control irritant (5% SDS). The protocol:
Retinoids were dissolved in one of two vehicles: V1 (50% ethanol, 20% glycerin, 0.1% BHT, in PBS) or V2 (50% ethanol, 0.1% BHT, in PBS).

The test system is the same in data set [2]. As to the kind of experiment: In Vitro Skin Irritation Test, MTT tissue viability upon SDS exposure (Example 1). As to conditions: for mean of viability [%]: 60 minute exposure, MTT after 42 hr. As for the experimental part:
An In Vitro Skin Irritation Test was performed according to OCED guidelines. Irritant materials are identified by their ability to decrease cell viability below a defined threshold level of 50%. Moreover, if the cytotoxic effect is absent or weak, a quantifiable amount of inflammatory mediators (e.g. IL-1α) is released by the epidermis and may be used in a tiered approach to increase the sensitivity of the test.
Test materials (30 μl) were topically applied onto three-dimensional human epidermal equivalents (EPI-200 from MatTek, Ashland, Mass.), n=3 tissues per treatment group. Test materials included a positive control irritant (5% sodium dodecyl sulfate, SDS), and a negative control (Phosphate Buffered Saline, PBS), and aqueous SDS solutions of 0.2, 0.4 and 0.6%, with or without the addition of modified chitosan (1%). Modified chitosan (1%) alone was also included.
After a 60 minute exposure, the tissues were rinsed with PBS and were transferred to fresh medium. After 24 hours, media was collected for IL-1α analysis and tissues were transferred to fresh media for an additional 18 hr to allow the toxic effect of irritant chemicals to develop. After the 42 hr post-exposure equilibration, media was again collected and tissue viability was determined using an MTT assay.

Data set [3] relates to IL-1α secretion, human epidermal equivalents (EPI-200). As to the kind of experiment: IL-1α secretion upon chymotrypsin exposure (Example 5, diaper rash irritation). The data set is classed as cell-based. The protocol: (§1) Modified chitosan (1%) alone was also included.
(§2) IL-1α secretion was analyzed using the Human IL-1α ELISA Duo Set (R&D Systems, cat# DY200, Lot 1353857). A Bio-Tek microplate reader and KC4 software were used for sample analysis.
(§3) The method is described in Example 1. Test articles included Chymotrypsin (0.005, 0.01 and 0.02%), with and without modified chitosan (1%). Chymotrypsin is the major fecal irritant enzyme that initiates diaper rash.

Data set [4] has the same test system. As to the kind of experiment: IL-1α levels 24 hr post-exposure, retinoids, ELISA (Example 2). The data set is classed as cell-based. The settings on record: 5% SDS, Positive Control. The protocol:
Retinoids were dissolved in one of two vehicles: […] […] A Bio-Tek microplate reader and KC4 software were used for sample analysis.

For data set [5] the test system is unchanged. As to the kind of experiment: IL-1α secretion upon SDS exposure, ELISA (Example 1). It is filed as cell-based. The settings on record: for IL-1α secretion, Avg: media at 24 hours. The protocol:
as §2

The subject of data set [6] is IL-1α secretion, epidermal equivalents (EPI-200). As to the kind of experiment: IL-1α levels at 96 hr, daily retinol treatment, ELISA (Example 4). It is filed as cell-based, human. As for the experimental part:
Epidermal equivalents (EPI-200 from MatTek, Ashland, Mass.) were topically treated daily, for four days, with 30 μl of each test article, n=3 tissues per treatment group. n=3 tissues were left untreated. Test articles were removed from the apical surface of the tissue daily by washing with PBS prior to reapplication of test article. […] Media was collected at 96 hour post treatment and IL-1α concentration was analyzed using the Human IL-1α ELISA Duo Set (R&D Systems, cat# DY200, Lot 1353857). A Bio-Tek microplate reader and KC4 software were used for sample analysis.
In general terms: An ELISA detects its analyte on a solid surface through an enzyme-linked reagent.

Data set [7] has as its system Epidermal equivalents (EPI-200). Nature of the data set: Visual observation of tissues after four days of daily retinol treatment (Example 3). As to conditions: 1% retinol in vehicle, daily for four days. The data set is classed as cell-based. As for the experimental part:
Epidermal equivalents (EPI-200 from MatTek, Ashland, Mass.) were topically treated daily, for four days, with 30 μl of each test article, n=3 tissues per treatment group. Test articles were removed from the apical surface of the tissue daily by washing with PBS prior to reapplication of test article. Tissues were fed daily with 0.9 mL EPI-100-NMM. Tissues remained untreated, or treated with a vehicle (45% ethanol, 0.1% BHT, in PBS), without and with increasing concentrations of retinol (0.01-1%), with or without the addition of the modified chitosan (1%).

Data set [8] relates to three-dimensional human epidermal equivalents (EPI-200). As to the kind of experiment: Cell death upon chymotrypsin exposure (Example 5). The data set is classed as cell-based. As to conditions: chymotrypsin 0.005-0.02%, one hour exposure.
Description: as §1, §3

Where [9] appears, read: Untreated + Chymotrypsin (0.005%).
Setting [10] is: Untreated + Chymotrypsin (0.01%).
The mark [11] stands for this setting: Untreated + Chymotrypsin (0.02%).

For `CCCCCCCCCCCCOS(=O)(=O)[O-].[Na+]` [SDS, sodium dodecyl sulfate], the viability result in data set [1] is “less than 10%”. Moreover, the “mean of viability [%]” value in data set [2] (0.2% SDS) was determined as 110.0%; in data set [2] (0.4% SDS), 106.3%; in data set [2] (0.6% SDS), 13.8%; in data set [2] (5% SDS (PC)) it was 11.1%. Further, the tissues dead in data set [2] (0.6% SDS) is reported as around 90%. For the same compound, in data set [3] (Positive Control (PC, 5% SDS)), the “IL-1α secretion, AVG” value was 394.114. Further, in data set [3] (Positive Control (PC, 5% SDS)), the “IL-1α secretion, tissue 1” value worked out at 459.595. The “IL-1α secretion, tissue 2” value in data set [3] (Positive Control (PC, 5% SDS)) worked out at 384.839. Also, the “IL-1α secretion, tissue 3” value in data set [3] (Positive Control (PC, 5% SDS)) is reported as 337.908. The “IL-1α levels 24 hr post-exposure, AVG” value in data set [4] is recorded as above 524.6. In addition, the “IL-1α secretion, Avg” value in data set [5] (0.2% SDS) stood at 151.98; in data set [5] (0.4% SDS), 334.95; in data set [5] (0.6% SDS) it was 524.61; in data set [5] (PC (5% SDS)), 425.23. In data set [5] (SDS exposure 0.2-0.6%), the “IL-1α secretion” value was “dose-dependent increase in IL-1α secretion”.
For `CC1=C(/C=C/C(C)=C/C=C/C(C)=C/CO)C(C)(C)CCC1` [retinol], in data set [6] (Vehicle + retinol (0.01%)), the “IL-1α levels at 96 hr post-exposure, AVG” value was determined as 104.90; the “IL-1α levels at 96 hr post-exposure, Tissue 1” value (shortened to “IL-1α levels … Tissue 1”) turned out to be 124.24; the “IL-1α levels at 96 hr post-exposure, Tissue 2” value (“IL-1α levels … Tissue 2” for short) worked out at 108.54; the “IL-1α levels at 96 hr post-exposure, Tissue 3” value (“IL-1α levels … Tissue 3” below) is on record as 81.94. Also, in data set [6] (Vehicle + retinol (0.1%)), the “IL-1α levels at 96 hr post-exposure, AVG” value is given as 240.68; the “IL-1α levels … Tissue 1” value came to 351.17; the “IL-1α levels … Tissue 2” value is given as 108.86; the “IL-1α levels … Tissue 3” value came out at 262.00. Moreover, in data set [6] (Vehicle + retinol (1%)), the “IL-1α levels at 96 hr post-exposure, AVG” value is 1020.46; the “IL-1α levels … Tissue 1” value is recorded as 885.52; the “IL-1α levels … Tissue 2” value is given as 1097.75; the “IL-1α levels … Tissue 3” value is on record as 1078.11. The “skin irritation by IL-1α secretion biomarker” value in data set [6] (retinol 0.01-1% in vehicle) was “induces skin irritation in a dose-responsive manner”. Moreover, the “visual observations at 96 hour post treatment” value in data set [7] is reported as “partially disintegrated”.
On to Chymotrypsin, for which the “cell death” value in data set [8] is on record as “did not induce cell death”. In addition, in data set [3] (setting [9]), the “IL-1α secretion, AVG” value was 65.279; the “IL-1α secretion, tissue 1” value was determined as 47.295; the “IL-1α secretion, tissue 2” value was 74.241; the “IL-1α secretion, tissue 3” value was 74.302. Besides, in data set [3] (setting [10]), the “IL-1α secretion, AVG” value is given as 66.405; the “IL-1α secretion, tissue 1” value was 58.421; the “IL-1α secretion, tissue 2” value stood at 53.293; the “IL-1α secretion, tissue 3” value amounted to 87.502. Further, in data set [3] (setting [11]), the “IL-1α secretion, AVG” value is listed as 166.821; the “IL-1α secretion, tissue 1” value is reported as 67.307; the “IL-1α secretion, tissue 2” value is on record as 353.378; the “IL-1α secretion, tissue 3” value stood at 79.779. Besides, in data set [3] (chymotrypsin exposure 0.005-0.02%), the “IL-1α secretion” value was “dose-dependent increase in IL-1α secretion”.
